Measured values as given in ChEMBL document CHEMBL3046407, “Toxicity of monoterpenes against larvae and adults of Colorado potato beetle, Leptinotarsa decemlineata Say (Coleoptera: Chrysomelidae)” (2007).

How the values were obtained:
[1] = system: Leptinotarsa decemlineata; experiment: Insecticidal activity against adult Leptinotarsa decemlineata infested potato leaves assessed as mortality at 0.5 mg after 12 hr relative to control; type: functional
[2] = system: Leptinotarsa decemlineata; experiment: Insecticidal activity against first-instar larval stage of Leptinotarsa decemlineata infested potato leaves assessed as mortality at 0.5 mg after 96 hr relative to control; type: functional
[3] = system: Leptinotarsa decemlineata; type: functional, Instar larval stage
[4] = system: Leptinotarsa decemlineata; type: functional, Instar larval stage; remark: listed apart in the source
[5] = system: Leptinotarsa decemlineata; experiment: Insecticidal activity against third-instar larval stage of Leptinotarsa decemlineata infested potato leaves assessed as mortality at 1 mg after 24 hr relative to control; type: functional
[6] = system: Leptinotarsa decemlineata; type: functional, Instar larval stage; remark: listed apart in the source
[7] = system: Leptinotarsa decemlineata; experiment: Insecticidal activity against first-instar larval stage of Leptinotarsa decemlineata infested potato leaves assessed as mortality at 1 mg after 12 hr relative to control; type: functional
[8] = system: Leptinotarsa decemlineata; type: functional, Instar larval stage; remark: listed apart in the source
[9] = system: Leptinotarsa decemlineata; experiment: Insecticidal activity against first-instar larval stage of Leptinotarsa decemlineata infested potato leaves assessed as mortality at 1 mg after 96 hr relative to control; type: functional
[10] = system: Leptinotarsa decemlineata; experiment: Insecticidal activity against first-instar larval stage of Leptinotarsa decemlineata infested potato leaves assessed as mortality at 0.5 mg after 24 hr relative to control; type: functional
[11] = system: Leptinotarsa decemlineata; experiment: Insecticidal activity against third-instar larval stage of Leptinotarsa decemlineata infested potato leaves assessed as mortality at 0.5 mg after 24 hr relative to control; type: functional
[12] = system: Leptinotarsa decemlineata; experiment: Insecticidal activity against third-instar larval stage of Leptinotarsa decemlineata infested potato leaves assessed as mortality at 0.5 mg after 12 hr relative to control; type: functional
[13] = system: Leptinotarsa decemlineata; type: functional, Instar larval stage; remark: listed apart in the source
[14] = system: Leptinotarsa decemlineata; type: functional, Instar larval stage; remark: listed apart in the source
[15] = system: Leptinotarsa decemlineata; experiment: Insecticidal activity against adult Leptinotarsa decemlineata infested potato leaves assessed as mortality at 1 mg after 24 hr relative to control; type: functional
[16] = system: Leptinotarsa decemlineata; experiment: Insecticidal activity against first-instar larval stage of Leptinotarsa decemlineata infested potato leaves assessed as mortality at 1 mg after 48 hr relative to control; type: functional
[17] = system: Leptinotarsa decemlineata; experiment: Insecticidal activity against adult Leptinotarsa decemlineata infested potato leaves assessed as mortality at 0.5 mg after 48 hr relative to control; type: functional
[18] = system: Leptinotarsa decemlineata; experiment: Insecticidal activity against adult Leptinotarsa decemlineata infested potato leaves assessed as mortality at 1 mg after 96 hr relative to control; type: functional
[19] = system: Leptinotarsa decemlineata; type: functional, Instar larval stage; remark: listed apart in the source
[20] = system: Leptinotarsa decemlineata; type: functional, Instar larval stage; remark: listed apart in the source
[21] = system: Leptinotarsa decemlineata; experiment: Insecticidal activity against second-instar larval stage of Leptinotarsa decemlineata infested potato leaves assessed as mortality at 0.5 mg after 12 hr relative to control; type: functional
[22] = system: Leptinotarsa decemlineata; type: functional, Instar larval stage; remark: listed apart in the source
[23] = system: Leptinotarsa decemlineata; experiment: Insecticidal activity against adult Leptinotarsa decemlineata infested potato leaves assessed as mortality at 1 mg after 12 hr relative to control; type: functional
[24] = system: Leptinotarsa decemlineata; experiment: Insecticidal activity against first-instar larval stage of Leptinotarsa decemlineata infested potato leaves assessed as mortality at 0.5 mg after 48 hr relative to control; type: functional
[25] = system: Leptinotarsa decemlineata; experiment: Insecticidal activity against second-instar larval stage of Leptinotarsa decemlineata infested potato leaves assessed as mortality at 1 mg after 12 hr relative to control; type: functional
[26] = system: Leptinotarsa decemlineata; type: functional, Instar larval stage; remark: listed apart in the source
[27] = system: Leptinotarsa decemlineata; experiment: Insecticidal activity against adult Leptinotarsa decemlineata infested potato leaves assessed as mortality at 1 mg after 48 hr relative to control; type: functional
[28] = system: Leptinotarsa decemlineata; experiment: Insecticidal activity against adult Leptinotarsa decemlineata infested potato leaves assessed as mortality at 0.5 mg after 24 hr relative to control; type: functional
[29] = system: Leptinotarsa decemlineata; experiment: Insecticidal activity against first-instar larval stage of Leptinotarsa decemlineata infested potato leaves assessed as mortality at 1 mg after 24 hr relative to control; type: functional
[30] = system: Leptinotarsa decemlineata; experiment: Insecticidal activity against first-instar larval stage of Leptinotarsa decemlineata infested potato leaves assessed as mortality at 0.5 mg after 12 hr relative to control; type: functional
[31] = system: Leptinotarsa decemlineata; experiment: Insecticidal activity against third-instar larval stage of Leptinotarsa decemlineata infested potato leaves assessed as mortality at 1 mg after 12 hr relative to control; type: functional
[32] = system: Leptinotarsa decemlineata; experiment: Insecticidal activity against adult Leptinotarsa decemlineata infested potato leaves assessed as mortality at 0.5 mg after 96 hr relative to control; type: functional
[33] = system: Leptinotarsa decemlineata; experiment: Insecticidal activity against adult Leptinotarsa decemlineata infested potato leaves assessed as mortality at 10 ul after 48 hr relative to control; type: functional
Sitophilus granarius = experiment: Insecticidal activity against Sitophilus granarius (granary weevil) assessed as mortality; type: functional
[34] = system: Leptinotarsa decemlineata; experiment: Insecticidal activity against first-instar larval stage of Leptinotarsa decemlineata infested potato leaves assessed as mortality at 20 ul after 12 hr relative to control; type: functional
[35] = system: Leptinotarsa decemlineata; experiment: Insecticidal activity against first-instar larval stage of Leptinotarsa decemlineata infested potato leaves assessed as mortality at 10 ul after 96 hr relative to control; type: functional
[36] = system: Leptinotarsa decemlineata; experiment: Insecticidal activity against first-instar larval stage of Leptinotarsa decemlineata infested potato leaves assessed as mortality at 20 ul after 96 hr relative to control; type: functional
[37] = system: Leptinotarsa decemlineata; experiment: Insecticidal activity against second-instar larval stage of Leptinotarsa decemlineata infested potato leaves assessed as mortality at 20 ul after 24 hr (reference value: 3.3 +/- 3.3%); type: functional
[38] = system: Leptinotarsa decemlineata; experiment: Insecticidal activity against adult Leptinotarsa decemlineata infested potato leaves assessed as mortality at 10 ul after 24 hr relative to control; type: functional
[39] = system: Leptinotarsa decemlineata; experiment: Insecticidal activity against adult Leptinotarsa decemlineata infested potato leaves assessed as mortality at 20 ul after 12 hr relative to control; type: functional
[40] = system: Leptinotarsa decemlineata; experiment: Insecticidal activity against second-instar larval stage of Leptinotarsa decemlineata infested potato leaves assessed as mortality at 20 ul after 12 hr relative to control; type: functional
[41] = system: Leptinotarsa decemlineata; experiment: Insecticidal activity against second-instar larval stage of Leptinotarsa decemlineata infested potato leaves assessed as mortality at 10 ul after 96 hr (reference value: 3.3 +/- 3.3%); type: functional
[42] = system: Leptinotarsa decemlineata; experiment: Insecticidal activity against first-instar larval stage of Leptinotarsa decemlineata infested potato leaves assessed as mortality at 20 ul after 48 hr relative to control; type: functional
[43] = system: Leptinotarsa decemlineata; experiment: Insecticidal activity against third-instar larval stage of Leptinotarsa decemlineata infested potato leaves assessed as mortality at 20 ul after 24 hr relative to control; type: functional
[44] = system: Leptinotarsa decemlineata; experiment: Insecticidal activity against second-instar larval stage of Leptinotarsa decemlineata infested potato leaves assessed as mortality at 20 ul after 96 hr (reference value: 3.3 +/- 3.3%); type: functional
[45] = system: Leptinotarsa decemlineata; experiment: Insecticidal activity against second-instar larval stage of Leptinotarsa decemlineata infested potato leaves assessed as mortality at 10 ul after 48 hr (reference value: 3.3 +/- 3.3%); type: functional
[46] = system: Leptinotarsa decemlineata; experiment: Insecticidal activity against second-instar larval stage of Leptinotarsa decemlineata infested potato leaves assessed as mortality at 10 ul after 24 hr (reference value: 3.3 +/- 3.3%); type: functional
[47] = system: Leptinotarsa decemlineata; experiment: Insecticidal activity against adult Leptinotarsa decemlineata infested potato leaves assessed as mortality at 20 ul after 24 hr relative to control; type: functional
[48] = system: Leptinotarsa decemlineata; experiment: Insecticidal activity against third-instar larval stage of Leptinotarsa decemlineata infested potato leaves assessed as mortality at 20 ul after 12 hr relative to control; type: functional
[49] = system: Leptinotarsa decemlineata; experiment: Insecticidal activity against second-instar larval stage of Leptinotarsa decemlineata infested potato leaves assessed as mortality at 20 ul after 48 hr (reference value: 3.3 +/- 3.3%); type: functional
[50] = system: Leptinotarsa decemlineata; experiment: Insecticidal activity against third-instar larval stage of Leptinotarsa decemlineata infested potato leaves assessed as mortality at 10 ul after 48 hr (reference value: 3.3 +/- 3.3%); type: functional
[51] = system: Leptinotarsa decemlineata; experiment: Insecticidal activity against adult Leptinotarsa decemlineata infested potato leaves assessed as mortality at 20 ul after 48 hr relative to control; type: functional
[52] = system: Leptinotarsa decemlineata; experiment: Insecticidal activity against adult Leptinotarsa decemlineata infested potato leaves assessed as mortality at 10 ul after 12 hr relative to control; type: functional
[53] = system: Leptinotarsa decemlineata; experiment: Insecticidal activity against third-instar larval stage of Leptinotarsa decemlineata infested potato leaves assessed as mortality at 10 ul after 12 hr relative to control; type: functional
[54] = system: Leptinotarsa decemlineata; experiment: Insecticidal activity against first-instar larval stage of Leptinotarsa decemlineata infested potato leaves assessed as mortality at 10 ul after 24 hr relative to control; type: functional
[55] = system: Leptinotarsa decemlineata; experiment: Insecticidal activity against third-instar larval stage of Leptinotarsa decemlineata infested potato leaves assessed as mortality at 20 ul after 96 hr (reference value: 3.3 +/- 3.3%); type: functional
[56] = system: Leptinotarsa decemlineata; experiment: Insecticidal activity against adult Leptinotarsa decemlineata infested potato leaves assessed as mortality at 20 ul after 96 hr relative to control; type: functional
[57] = system: Leptinotarsa decemlineata; experiment: Insecticidal activity against first-instar larval stage of Leptinotarsa decemlineata infested potato leaves assessed as mortality at 10 ul after 12 hr relative to control; type: functional
[58] = system: Leptinotarsa decemlineata; experiment: Insecticidal activity against first-instar larval stage of Leptinotarsa decemlineata infested potato leaves assessed as mortality at 20 ul after 24 hr relative to control; type: functional
[59] = system: Leptinotarsa decemlineata; experiment: Insecticidal activity against third-instar larval stage of Leptinotarsa decemlineata infested potato leaves assessed as mortality at 10 ul after 24 hr relative to control; type: functional
[60] = system: Leptinotarsa decemlineata; experiment: Insecticidal activity against second-instar larval stage of Leptinotarsa decemlineata infested potato leaves assessed as mortality at 10 ul after 12 hr relative to control; type: functional
[61] = system: Leptinotarsa decemlineata; experiment: Insecticidal activity against third-instar larval stage of Leptinotarsa decemlineata infested potato leaves assessed as mortality at 20 ul after 48 hr (reference value: 3.3 +/- 3.3%); type: functional
[62] = system: Leptinotarsa decemlineata; experiment: Insecticidal activity against adult Leptinotarsa decemlineata infested potato leaves assessed as mortality at 10 ul after 96 hr relative to control; type: functional
[63] = system: Leptinotarsa decemlineata; experiment: Insecticidal activity against first-instar larval stage of Leptinotarsa decemlineata infested potato leaves assessed as mortality at 10 ul after 48 hr relative to control; type: functional
[64] = system: Leptinotarsa decemlineata; experiment: Insecticidal activity against third-instar larval stage of Leptinotarsa decemlineata infested potato leaves assessed as mortality at 10 ul after 96 hr (reference value: 3.3 +/- 3.3%); type: functional

SMILES: CC1(C)[C@H](/C=C(\Cl)C(F)(F)F)[C@@H]1C(=O)O[C@@H](C#N)c1cccc(Oc2ccccc2)c1 (relative stereo) [REL-LAMBDA CYHALOTHRIN]
- mortality [1]: 100%
- mortality [2]: 100%
- mortality [3]: 93.3%
- mortality [4]: 100%
- mortality [5]: 90%
- mortality [6]: 86.7%
- mortality [7]: 60%
- mortality [8]: 93.3%
- mortality [9]: 100%
- mortality [10]: 93.3%
- mortality [11]: 86.7%
- mortality [12]: 73.3%
- mortality [13]: 100%
- mortality [14]: 100%
- mortality [15]: 100%
- mortality [16]: 100%
- mortality [17]: 100%
- mortality [18]: 100%
- mortality [19]: 100%
- mortality [20]: 100%
- mortality [21]: 73.3%
- mortality [22]: 100%
- mortality [23]: 90%
- mortality [24]: 100%
- mortality [25]: 80%
- mortality [26]: 100%
- mortality [27]: 100%
- mortality [28]: 100%
- mortality [29]: 90%
- mortality [30]: 63.3%
- mortality [31]: 86.7%
- mortality [32]: 100%

SMILES: CC(C)[C@H]1CC[C@H](C)CC1=O (relative stereo) [REL-MENTHONE]
- mortality [33]: 100%
- mortality (Sitophilus granarius): 90%
- mortality [34]: 26.7%
- mortality [35]: 50%
- mortality [36]: 66.7%
- mortality [37]: 53.3%
- mortality [38]: 93.3%
- mortality [39]: 83.3%
- mortality [40]: 26.7%
- mortality [41]: 36.7%
- mortality [42]: 56.7%
- mortality [43]: 30%
- mortality [44]: 56.7%
- mortality [45]: 33.3%
- mortality [46]: 33.3%
- mortality [47]: 100%
- mortality [48]: 23.3%
- mortality [49]: 56.7%
- mortality [50]: 53.3%
- mortality [51]: 100%
- mortality [52]: 70%
- mortality [53]: 30%
- mortality [54]: 23.3%
- mortality [55]: 50%
- mortality [56]: 100%
- mortality [57]: 6.7%
- mortality [58]: 53.3%
- mortality [59]: 50%
- mortality [60]: 13.3%
- mortality [61]: 43.3%
- mortality [62]: 100%
- mortality [63]: 40%
- mortality [64]: 56.7%
